{"source": "patent US8476449B2", "about": "“Radioactive iodine labeled organic compound or salt thereof” (Nihon Medi-Physics Co., Ltd., priority 2010, dated 2013)", "key": {"Aβ42 aggregate": {"target": "T1, Aβ42 aggregate (Homo sapiens, UniProt P05067)", "T1 construct": "Aβ (1-42) peptide; purchased Peptide Institute, Inc", "T1 sequence (P05067 672-713 limits assumed)": "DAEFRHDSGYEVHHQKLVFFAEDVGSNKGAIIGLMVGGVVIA", "assay": "Inhibition constant toward Aβ42 aggregate (thioflavin S competition)", "assay_type": "binding", "settings": "thioflavin S as ligand, read-out: Ki values (Aβ42 in Table 5)", "description": "(§1) First, the dissociation constant (Kd) of thioflavin S used as a competitive ligand was first determined by a saturation experiment in order to calculate inhibition constants of compounds 1 to 3. That is, a mixed solution of a 10 vol % ethanol aqueous solution of thioflavin S (0.1-12.8 μmol/L) and the tau protein aggregate (final concentration 0.2 μmol/L, prepared in Example 9) or the Aβ42 aggregate (final concentration 2.2 μmol/L, prepared in Example 11) was incubated for 30 minutes, and the fluorescence intensity was measured using a fluorescence plate reader (FLEX STATION, Molecular Devices). The fluorescence intensity was measured at Ex 440 nm and Em 510 nm for the tau protein aggregate and Ex 440 nm and Em 490 nm for the Aβ42 aggregate. A saturation curve was prepared using GraphPad Prism, and the Kd value for thioflavin S was calculated.\n(§2) Next, a mixed solution of a 10 volt ethanol aqueous solution of thioflavin S (1.5 μmol/L) and a test compound (0.6 nmol/L to 10 μmol/L) together with the tau protein aggregate (final concentration 0.2 μmol/L, prepared in Example 9) or the Aβ42 aggregate (final concentration 10 μg/ml, prepared in Example 11) was incubated for 30 minutes. Then, the fluorescence intensities at Ex 440 nm and Em 510 nm for the tau protein aggregate and Ex 440 nm and Em 490 nm for the Aβ42 aggregate were measured using a fluorescence plate reader (FLEX STATION, Molecular Devices). GraphPad Prism inhibition curves were prepared, and Ki values of compounds 1 to 3 were determined using the above obtained Kd value of thioflavin S."}, "[1]": {"test_system": "human brain neurofibrillary tangles", "assay": "Fluorescent staining of Alzheimer's disease patient brain slice (binding to human brain neurofibrillary tangles)", "settings": "200 μmol/L, 1 hour", "description": "A fluorescent staining experiment with compound 3 using an Alzheimer's disease patient brain slice was carried out in order to evaluate binding to human brain neurofibrillary tangles. A postmortem brain slice (paraffin-embedded slice) of an Alzheimer's disease patient purchased from BioChain was washed with xylene (5 minutes×twice), ethanol, ethanol, a 95 vol % ethanol aqueous solution, an 85 volt ethanol aqueous solution, and a 70 vol % ethanol aqueous solution (1 minute×once) to thus carry out deparaffinization. Subsequently, it was treated in sequence with a 0.3 wt % potassium permanganate aqueous solution (20 minutes×once), PBS (phosphoric acid buffer physiological saline) (2 minutes×twice), a 1 wt % potassium metabisulfite aqueous solution/1 wt % oxalic acid aqueous solution (1 minute×once), PBS (2 minutes×twice), a 1 wt % sodium borohydride aqueous solution (5 minutes×once), and PBS (2 minutes×twice) in order to remove self-fluorescence of the slice. Blocking using 3 wt % BSA-containing PBS/0.1 wt % tritonX100-containing PBS was carried out for 3 hours. Then, a test compound (200 μmol/L/50 vol % ethanol aqueous solution) and the slice were incubated for 1 hour. The slice was washed with 50 vol % ethanol, and examined using a fluorescence microscope. Furthermore, the same slice was stained using thioflavin S (0.125 wt %, 50 vol % ethanol aqueous solution) for 10 minutes. […]"}, "tau protein aggregate [2]": {"target": "T2, tau protein aggregate (Homo sapiens, UniProt P10636)", "T2 sequence (P10636 1-441 isoform P10636-8)": "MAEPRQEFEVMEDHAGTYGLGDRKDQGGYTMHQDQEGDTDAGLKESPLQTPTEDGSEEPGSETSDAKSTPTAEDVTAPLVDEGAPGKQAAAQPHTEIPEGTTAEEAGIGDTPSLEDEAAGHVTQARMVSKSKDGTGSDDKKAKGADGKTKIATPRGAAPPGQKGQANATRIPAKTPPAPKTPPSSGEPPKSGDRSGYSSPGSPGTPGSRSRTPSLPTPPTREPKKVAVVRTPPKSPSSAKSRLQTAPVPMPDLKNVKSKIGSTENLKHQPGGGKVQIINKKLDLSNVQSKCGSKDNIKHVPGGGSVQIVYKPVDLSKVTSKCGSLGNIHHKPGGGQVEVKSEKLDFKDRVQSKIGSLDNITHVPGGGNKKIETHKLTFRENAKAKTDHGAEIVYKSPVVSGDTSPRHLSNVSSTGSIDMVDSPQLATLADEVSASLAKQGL", "assay": "Competitive inhibition experiment using thioflavin S (ThS) as ligand, fluorescence spectra", "assay_type": "binding", "set-up": "made in house; host or cells: E. coli BL21", "settings": "tau protein aggregate 0.2 μmol/L, thioflavin S 1.5 μmol/L, compound 0.1-2.7 μmol/L, excitation 440 nm", "description": "Tau-441 expression vector (provided by Graduate School of Medicine, Osaka City University) was transferred to E. coli (BL21), culturing was carried out, and a tau protein was extracted and purified. Heparin (0.1 mg/mL) was added to the purified tau protein (1 mg/mL), and incubation in a 50 mmol/L MES buffer (pH 6.8, 100 mmol/L sodium chloride, 0.5 mmol/L EGTA) at 37° C. was carried out for 3 days, thus preparing an aggregate. Formation of the tau protein aggregate was confirmed by SDS-PAGE and thioflavin S fluorescence assay.\nA mixed solution (550 μL) of the tau protein aggregate (final concentration […]) thus prepared, thioflavin S (Sigma Aldrich, final concentration 1.5 μmol/L), and compound 1, compound 2, or compound 3 solution at various concentrations (each having final concentrations of 0 to 2.7 μmol/L) was incubated for 30 minutes, and fluorescence spectra at an excitation wavelength of 440 nm were measured using a fluorescence spectrometer (RF-5300PC, Shimadzu Corporation).\nIn FIGS. 3 to 5, a is a fluorescence spectrum of a sample (sample I) containing only thioflavin S at 1.5 μmol/L, and b is a fluorescence spectrum of a sample (sample II) that is 0.2 μmol/L of the tau protein aggregate in sample I. In FIG. 3, c is a fluorescence spectrum of a sample that is 0.1 μmol/L of compound 1 in sample II, d is a fluorescence spectrum of a sample that is 0.3 μmol/L of compound 1 in sample II, e is a fluorescence spectrum of a sample that is 0.9 μmol/L of compound 1 in sample II, and f is a fluorescence spectrum of a sample that is 2.7 μmol/L of compound 1 in sample II. In FIG. 4, c is a fluorescence spectrum of a sample that is 0.1 μmol/L of compound 2 in sample II, d is a fluorescence spectrum of a sample that is 0.3 μmol/L of compound 2 in sample II, e is a fluorescence spectrum of a sample that is 0.9 μmol/L of compound 2 in sample II, and f is a fluorescence spectrum of a sample that is 2.7 μmol/L of compound 2 in sample II. […]"}, "tau protein aggregate [3]": {"target": "T2, tau protein aggregate", "assay": "Inhibition constant toward tau protein aggregate (thioflavin S competition)", "assay_type": "binding", "set-up": "made in house; host or cells: E. coli BL21", "description": "as §1, §2"}}, "data": [{"molecule": "O=C1/C(=C/c2ccc(-c3cccc(I)c3)o2)NC(=S)N1CCc1c[nH]cn1", "note": "[Compound 3, (Z)-3-(2-(1H-imidazol-4-yl)ethyl)-5-((5-(3-iodophenyl)furan-2-yl)methylene)-2-thioxoimidazolidin-4-one]", "values": [{"measurement": "Ki", "setting": "Aβ42 aggregate", "result": 469, "unit": "nM"}, {"measurement": "Fluorescent staining of brain slice vs AT8 immunostaining", "setting": "[1]", "result": "Prominent fluorescence accumulation"}, {"measurement": "Inhibition of binding of tau protein aggregate to thioflavin S (fluorescence spectra)", "setting": "tau protein aggregate [2]", "result": "inhibition of binding of a tau protein aggregate to thioflavin S"}, {"measurement": "Ki ratios of Aβ42/Tau", "setting": "tau protein aggregate [3]; ratio of Ki Aβ42 aggregate to Ki tau protein aggregate", "result": 7.33}, {"measurement": "Ki", "setting": "tau protein aggregate [3]; thioflavin S as ligand, tau protein aggregate, read-out: Ki values (Tau in Table 5)", "result": 64, "unit": "nM"}]}]}
